In publication PMC10924921, “Mi-2β promotes immune evasion in melanoma by activating EZH2 methylation” (Nature Communications, 2024):

Experiments:
B16F10 cells = assay: CCK-8 cell proliferation; assay type: cell-based, mouse; details: CCK-8, B16F10 cells
Protocol: (§1) To test whether Z36-MP5 affects cell proliferation, cells were seeded into 96-well plates at a density of 1 × 10^3 cells/100 μl per well. CCK-8 was used to detect changes in proliferation ability after 3 days of treatment with Z36-MP5 (25 μM). To test whether Mi-2β expression in T cells or treatment of T cells with Z36-MP5 affects the ability of T cells to kill tumor cells, Mi-2β in Pmel-1 T cells was manipulated or Pmel-1 cells were exposed to Z36-MP5 (25 μM) for 24 hrs. The number of cells was quantified. One thousand Pmel-1 T cells were then co cultured with 1000 tumor cells for 24 hrs, and the number of tumor cells was counted.
(§2) Supplementary Figure 8. In vitro assay for Mi-2β inhibitors. a The body weight changes of C57BL/6J mice treated with Z36-MP5 (30 mg/kg/day) for 2 weeks. Data are mean ± SEM (n=5). b H&E staining of tissues in C57BL/6J mice treated with or without Z36 -MP5 (30 mg/kg/day) for 2 weeks. […]
(§3) The growth of tumor grafts was measured. n = 5. g Mice bearing B16F10 cell s were treated with MS177 (100 mg/kg, 5 days) and then Z36 -MP5 (30 mg/kg/day) or vehicles, accompanied with anti -PD-1 antibody […]

[1] = system: Pmel-1 T cells co cultured with tumor cells; assay: Pmel-1 T-cell killing of tumor cells; assay type: cell-based, mouse
Protocol: as §1, §2, §3

[2] = Estimated blood concentration in mice; assay type: in vivo; details: intraperitoneal 30 mg per kg, extrapolated from rat
Text: FLT3 kinase inhibitor for acute myeloid leukemia with FLT3 mutations. J Med Chem, 61, 3855-3869 (2018); Lexian Tong et al., Identification of 2-aminopyrimidine derivatives as FLT3 kinase inhibitors with high selectivity over c-KIT. J Med Chem, 65, 3229-3248 (2022)). In these cases, the cellular form of the FLT3-WT or FLT3-ITD mutant was preferentially bound. Another example is paclitaxel, a microtubule-stabilizing agent that is widely used in cancer chemotherapy. Biochemical competitive […]
(Shubhada Sharma, et al., Dissecting paclitaxel–microtubule association: quantitative assessment of the 2’-OH group. Biochemistry, 52, 2328-2336 (2013)). Paclitaxel sensitizes BG-1 ovarian cancer cells to radiation at a dose that was not cytotoxic and […]
sensitizer: a flow cytometric study. Gynecol Oncol, 50, 89-93 (1993)).
Like the Mi-2β silencing by shMi-2β (Supplementary Fig. 3C), we observed substantial increases in expressions of Mi-2β target genes, Cxcl9 and Cxcl10, to similar levels after treatment of B16F10 cells with Z36-MP5 at concentrations 5 μM to 100 μM (Fig. 5F).
MP5 treatment would be sufficient for inhibiting Mi-2β in cells. Moreover, we observed a maintenance of blood concentration of 4 μM to 10 μM Z36-MP5 in rat for around 1 hour after the intraperitoneal injection at a dose of Z36-MP5 as low as 1 mg per kg […]

BMPR1A = BMPR1A (Homo sapiens, UniProt P36894); assay: biochemical; parameters: KINOMEscan active-site competition binding panel (468 kinase assays), per cent of control at 1000 nM; details: KINOMEscan per cent of control (binding competition); read-out: Percent Control
Sequence of BMPR1A (P36894 whole entry): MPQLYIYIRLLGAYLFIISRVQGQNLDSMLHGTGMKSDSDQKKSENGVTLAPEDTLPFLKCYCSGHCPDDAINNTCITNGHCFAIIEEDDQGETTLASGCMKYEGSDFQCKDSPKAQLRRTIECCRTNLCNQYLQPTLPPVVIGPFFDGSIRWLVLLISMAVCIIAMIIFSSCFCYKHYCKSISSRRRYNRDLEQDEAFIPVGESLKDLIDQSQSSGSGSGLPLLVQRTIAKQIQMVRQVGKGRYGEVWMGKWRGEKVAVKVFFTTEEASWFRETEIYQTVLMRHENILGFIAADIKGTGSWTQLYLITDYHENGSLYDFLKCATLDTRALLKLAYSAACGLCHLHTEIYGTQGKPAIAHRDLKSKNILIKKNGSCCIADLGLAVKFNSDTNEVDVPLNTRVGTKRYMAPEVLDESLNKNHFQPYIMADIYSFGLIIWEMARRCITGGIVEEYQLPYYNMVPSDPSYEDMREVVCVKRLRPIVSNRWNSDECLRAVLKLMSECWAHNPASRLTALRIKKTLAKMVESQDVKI
Text: (§4) Figure S7 / Percent Control

CDK11 = molecular target: T1, CDK11 (Homo sapiens, UniProt Q9BWU1); assay: biochemical; parameters: KINOMEscan active-site competition binding panel (468 kinase assays), per cent of control at 1000 nM; details: KINOMEscan per cent of control (binding competition); read-out: Percent Control
T1 construct: gene CDK19
T1 sequence (Q9BWU1 whole entry): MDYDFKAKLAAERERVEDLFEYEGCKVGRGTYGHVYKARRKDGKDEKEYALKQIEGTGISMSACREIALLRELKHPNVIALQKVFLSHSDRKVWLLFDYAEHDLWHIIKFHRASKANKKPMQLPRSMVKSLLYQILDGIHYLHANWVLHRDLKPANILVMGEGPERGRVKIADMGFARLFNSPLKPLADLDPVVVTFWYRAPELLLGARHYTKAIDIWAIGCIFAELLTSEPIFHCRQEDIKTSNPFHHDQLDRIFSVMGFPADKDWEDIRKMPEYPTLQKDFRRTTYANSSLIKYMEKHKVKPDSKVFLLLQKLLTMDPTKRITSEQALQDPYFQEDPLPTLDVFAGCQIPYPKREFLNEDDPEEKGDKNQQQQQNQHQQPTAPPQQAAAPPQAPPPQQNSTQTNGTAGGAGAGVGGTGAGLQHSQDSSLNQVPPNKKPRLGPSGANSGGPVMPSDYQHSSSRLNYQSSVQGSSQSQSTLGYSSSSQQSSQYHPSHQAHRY
Text: as §4

CLK2 = CLK2 (Homo sapiens, UniProt P49760); assay: biochemical; parameters: KINOMEscan active-site competition binding panel (468 kinase assays), per cent of control at 1000 nM; details: KINOMEscan per cent of control (binding competition); read-out: Percent Control
Sequence of CLK2 (P49760 whole entry): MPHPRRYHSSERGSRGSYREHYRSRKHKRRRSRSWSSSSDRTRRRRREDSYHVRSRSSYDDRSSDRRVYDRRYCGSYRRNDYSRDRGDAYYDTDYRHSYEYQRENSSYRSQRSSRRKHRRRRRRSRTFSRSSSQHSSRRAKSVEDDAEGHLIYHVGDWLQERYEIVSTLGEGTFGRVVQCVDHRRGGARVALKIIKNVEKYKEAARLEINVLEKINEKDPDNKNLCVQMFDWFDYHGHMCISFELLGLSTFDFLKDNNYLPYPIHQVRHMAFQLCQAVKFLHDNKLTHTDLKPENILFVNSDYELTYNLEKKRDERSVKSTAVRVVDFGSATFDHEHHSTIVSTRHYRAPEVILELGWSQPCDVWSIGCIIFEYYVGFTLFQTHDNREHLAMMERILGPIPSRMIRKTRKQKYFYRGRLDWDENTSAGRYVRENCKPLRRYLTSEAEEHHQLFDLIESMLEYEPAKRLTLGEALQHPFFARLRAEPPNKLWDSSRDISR
Text: as §4

PIK3C2G = PIK3C2G (Homo sapiens, UniProt O75747); assay: biochemical; parameters: KINOMEscan active-site competition binding panel (468 kinase assays), per cent of control at 1000 nM; details: KINOMEscan per cent of control (binding competition); read-out: Percent Control
Sequence of PIK3C2G (O75747 whole entry): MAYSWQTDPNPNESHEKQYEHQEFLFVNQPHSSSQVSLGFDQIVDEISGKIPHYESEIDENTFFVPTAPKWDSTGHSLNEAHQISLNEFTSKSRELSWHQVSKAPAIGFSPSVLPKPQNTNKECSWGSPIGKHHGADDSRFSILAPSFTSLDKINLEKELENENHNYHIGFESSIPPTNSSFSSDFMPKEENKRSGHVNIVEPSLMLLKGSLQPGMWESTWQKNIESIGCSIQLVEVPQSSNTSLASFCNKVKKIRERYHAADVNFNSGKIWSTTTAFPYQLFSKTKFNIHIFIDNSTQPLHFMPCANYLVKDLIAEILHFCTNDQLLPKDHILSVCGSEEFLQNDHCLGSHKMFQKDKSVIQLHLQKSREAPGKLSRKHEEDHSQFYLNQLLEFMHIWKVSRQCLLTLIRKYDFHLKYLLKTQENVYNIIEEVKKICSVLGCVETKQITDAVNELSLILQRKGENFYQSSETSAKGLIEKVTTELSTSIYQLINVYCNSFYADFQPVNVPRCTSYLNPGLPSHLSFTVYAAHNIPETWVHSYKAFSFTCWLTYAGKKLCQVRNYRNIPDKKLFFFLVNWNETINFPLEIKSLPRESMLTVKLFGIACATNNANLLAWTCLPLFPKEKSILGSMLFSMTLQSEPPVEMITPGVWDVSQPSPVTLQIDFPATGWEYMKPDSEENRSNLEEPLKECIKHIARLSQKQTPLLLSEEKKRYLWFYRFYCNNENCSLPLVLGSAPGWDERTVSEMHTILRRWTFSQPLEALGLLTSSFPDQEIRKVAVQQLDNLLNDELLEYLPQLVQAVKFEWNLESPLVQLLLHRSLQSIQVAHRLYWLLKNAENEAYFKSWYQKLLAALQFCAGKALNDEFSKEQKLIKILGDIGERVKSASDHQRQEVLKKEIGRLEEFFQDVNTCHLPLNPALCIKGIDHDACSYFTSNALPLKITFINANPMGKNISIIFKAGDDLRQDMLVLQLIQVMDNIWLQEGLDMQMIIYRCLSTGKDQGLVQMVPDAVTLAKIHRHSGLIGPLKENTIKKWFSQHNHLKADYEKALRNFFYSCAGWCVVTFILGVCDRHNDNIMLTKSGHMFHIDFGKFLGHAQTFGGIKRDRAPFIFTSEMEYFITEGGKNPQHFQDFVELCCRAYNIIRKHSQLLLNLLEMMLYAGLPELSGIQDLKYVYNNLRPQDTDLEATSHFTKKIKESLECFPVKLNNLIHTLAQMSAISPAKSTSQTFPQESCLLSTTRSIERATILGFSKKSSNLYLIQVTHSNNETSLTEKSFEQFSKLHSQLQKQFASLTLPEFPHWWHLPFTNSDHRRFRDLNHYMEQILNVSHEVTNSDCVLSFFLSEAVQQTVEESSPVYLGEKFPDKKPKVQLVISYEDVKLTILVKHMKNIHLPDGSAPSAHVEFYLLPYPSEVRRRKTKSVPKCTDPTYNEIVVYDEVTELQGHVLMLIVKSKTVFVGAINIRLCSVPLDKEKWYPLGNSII
Text: as §4

PIM2 = PIM2 (Homo sapiens, UniProt Q9P1W9); assay: biochemical; parameters: KINOMEscan active-site competition binding panel (468 kinase assays), per cent of control at 1000 nM; details: KINOMEscan per cent of control (binding competition); read-out: Percent Control
Text: as §4

[3] = molecular target: T2, RSK2(Kin.Dom.1-N-terminal) (Homo sapiens, UniProt P51812); assay: biochemical; parameters: KINOMEscan active-site competition binding panel (468 kinase assays), per cent of control at 1000 nM; details: KINOMEscan per cent of control (binding competition); read-out: Percent Control
T2 construct: gene RPS6KA3; Kin.Dom.1-N-terminal
T2 sequence (P51812 whole entry): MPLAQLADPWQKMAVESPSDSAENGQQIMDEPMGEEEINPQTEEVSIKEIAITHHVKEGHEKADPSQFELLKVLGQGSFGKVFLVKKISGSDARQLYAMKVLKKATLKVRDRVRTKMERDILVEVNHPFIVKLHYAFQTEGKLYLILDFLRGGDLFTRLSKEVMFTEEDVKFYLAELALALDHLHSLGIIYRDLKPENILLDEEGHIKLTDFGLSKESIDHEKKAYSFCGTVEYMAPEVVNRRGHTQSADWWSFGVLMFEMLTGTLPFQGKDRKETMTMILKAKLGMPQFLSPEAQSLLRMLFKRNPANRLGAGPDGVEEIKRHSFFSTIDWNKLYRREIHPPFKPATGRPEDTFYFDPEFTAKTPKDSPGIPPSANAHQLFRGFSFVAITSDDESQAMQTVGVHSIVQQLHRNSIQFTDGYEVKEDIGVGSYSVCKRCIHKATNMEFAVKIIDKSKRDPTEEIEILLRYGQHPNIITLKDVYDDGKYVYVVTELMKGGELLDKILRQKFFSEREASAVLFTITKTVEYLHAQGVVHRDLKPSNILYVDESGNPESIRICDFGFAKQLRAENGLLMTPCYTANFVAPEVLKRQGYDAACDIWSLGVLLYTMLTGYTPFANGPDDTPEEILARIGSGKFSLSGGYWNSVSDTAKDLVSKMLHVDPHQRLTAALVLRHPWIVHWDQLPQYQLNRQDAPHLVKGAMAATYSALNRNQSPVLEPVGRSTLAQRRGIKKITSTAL
Text: as §4

STK36 = STK36 (Homo sapiens, UniProt Q9NRP7); assay: biochemical; parameters: KINOMEscan active-site competition binding panel (468 kinase assays), per cent of control at 1000 nM; details: KINOMEscan per cent of control (binding competition); read-out: Percent Control
Sequence of STK36 (Q9NRP7 whole entry): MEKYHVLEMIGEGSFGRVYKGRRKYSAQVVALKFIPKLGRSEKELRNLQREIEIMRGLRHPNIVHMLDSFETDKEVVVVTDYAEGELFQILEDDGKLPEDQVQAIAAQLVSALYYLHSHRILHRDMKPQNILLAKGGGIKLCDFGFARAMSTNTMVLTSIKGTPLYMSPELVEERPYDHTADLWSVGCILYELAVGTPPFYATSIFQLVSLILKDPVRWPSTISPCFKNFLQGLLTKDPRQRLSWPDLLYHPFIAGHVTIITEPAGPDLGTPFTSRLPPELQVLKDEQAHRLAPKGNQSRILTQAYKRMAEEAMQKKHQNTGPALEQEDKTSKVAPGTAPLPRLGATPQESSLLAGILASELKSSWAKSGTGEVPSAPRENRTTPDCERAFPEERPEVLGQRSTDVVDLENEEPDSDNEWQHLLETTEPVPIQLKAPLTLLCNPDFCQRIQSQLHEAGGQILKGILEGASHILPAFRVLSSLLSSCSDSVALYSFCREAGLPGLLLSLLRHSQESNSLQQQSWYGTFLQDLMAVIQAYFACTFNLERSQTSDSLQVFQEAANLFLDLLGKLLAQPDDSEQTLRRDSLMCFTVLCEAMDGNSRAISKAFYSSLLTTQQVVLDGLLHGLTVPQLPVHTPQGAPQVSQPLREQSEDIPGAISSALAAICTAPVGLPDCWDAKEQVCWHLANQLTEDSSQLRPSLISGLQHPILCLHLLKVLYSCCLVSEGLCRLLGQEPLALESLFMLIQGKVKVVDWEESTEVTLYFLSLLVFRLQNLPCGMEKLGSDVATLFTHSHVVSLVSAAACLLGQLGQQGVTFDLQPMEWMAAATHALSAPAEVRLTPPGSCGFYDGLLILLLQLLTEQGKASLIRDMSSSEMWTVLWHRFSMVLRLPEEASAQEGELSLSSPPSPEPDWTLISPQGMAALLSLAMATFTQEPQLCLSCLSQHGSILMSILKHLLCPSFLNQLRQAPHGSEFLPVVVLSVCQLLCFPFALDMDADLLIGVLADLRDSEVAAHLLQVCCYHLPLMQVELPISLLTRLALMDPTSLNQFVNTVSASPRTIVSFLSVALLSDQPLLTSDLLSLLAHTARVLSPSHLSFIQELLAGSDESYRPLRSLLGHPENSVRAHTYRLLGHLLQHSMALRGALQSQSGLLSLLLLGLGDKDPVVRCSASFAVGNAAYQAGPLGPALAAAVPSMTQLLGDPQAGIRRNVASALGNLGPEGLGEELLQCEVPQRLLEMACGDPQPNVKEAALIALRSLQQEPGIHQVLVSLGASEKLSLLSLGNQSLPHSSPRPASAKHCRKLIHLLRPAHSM
Text: as §4

B16F10 cell graft = assay: Syngeneic melanoma graft mouse model, tumor growth and survival
Protocol: Mi-2β knockdown or Scramble B16F10 cells (1.5 × 10^5) were mixed with BD matrigel (Matrix Growth Factor Reduced) (BD, 354230) in 100 μl PBS, and then subcutaneously injected into the right flanks of C57BL/6 mice of 8–10 week old (from the Jackson Laboratory, 000664). Tumor growth was measured with calipers, and size was expressed in cubic centimeters every 3 days. For antibody treatment, control IgG (10 mg/kg) or anti-PD-1 (RMP1-14, BioXCell, 10 mg/kg) was injected intraperitoneally (i.p.) on day 6, 9, 12, 15 and 18 after tumor cell inoculation. For tumor growth curve, grafts were measured with calipers and established (0.5*length × width^2) every three days. For survival tests, mice were euthanized when the tumor size exceeded 1 cm^3. […] The mice were euthanized after indicated days or when the allowable endpoint size (1 cm^3) was reached.

In the case of `Cn1c(=O)[nH]c2ccc(-c3cccc(C(=O)NC4CCn5ccnc5C4)c3)cc21` (stereo not drawn) [Z36-MP5], the “proliferation of tumor cells” value (B16F10 cells) was “not significantly inhibited”, the “killing potential of T cells” value [1] was “not significantly inhibited” and the “estimated highest blood concentration in mice” value [2] was “around 0.97 mM”. The remaining binding at 1 µM (BMPR1A) was 100%, the remaining binding at 1 µM (CDK11) was 82% and the remaining binding at 1 µM (CLK2) was 90%. For the same compound, the remaining binding at 1 µM (PIK3C2G) was 100%, the remaining binding at 1 µM (PIM2) was 91% and the remaining binding at 1 µM [3] was 67%. For the same compound, the remaining binding at 1 µM (STK36) was 77%, the “treatment effect in mice treated with MS177 to inhibit EZH2” value (B16F10 cell graft; B16F10 graft, MS177 100 mg/kg 5 days, then anti-PD-1 with Z36-MP5 or vehicle) was “No treatment effects were detected” and the “effect on tumors generated from Mi-2β-null cells” value (B16F10 cell graft; Z36-MP5 30 mg/kg/day accompanied by anti-PD-1) was “No detectable inhibitory effect”.
